According to article PMC8003321, “5-Aryl-1-Arylideneamino-1H-Imidazole-2(3H)-Thiones: Synthesis and In Vitro Anticancer Evaluation” (Molecules, 2021):

Tests used:
[1] = tested on: colon carcinoma (HCT-116); assay: MTT cytotoxicity assay, HCT-116; assay type: cell-based; conditions: 24 h treatment, mean of three experiments
Method: (§1) The effect of imidazole molecules 4a–e and 5 on the viability of three cancer cell lines were studied using the MTT assay. The cytotoxicity was assessed using Docetaxel (DOC) as a standard antitumor drug. The three cancer cell lines were MCF-7 (breast cancer cell line), colon carcinoma (HCT-116), and HepG2 (hepatocellular carcinoma cell line). […] Moreover, the safety of compounds 4d and 5 was assessed against a normal breast cell line (MCF-10A) using the MTT assay.
(§2) Antitumor activity of the newly prepared imidazole compounds 4a–e and 5 were carried out against MCF-7, HepG2, HCT-116, and MCF-10A using the MTT assay method. Cells at a density of 1 × 10^4 were seeded in 96-well plates at 37 °C for 48 h under 5% CO2. After incubation, the cells were treated with different concentrations of the prepared molecules and incubated for 24 h. MTT dye was added at the end of 24 h of drug treatment and incubated for 4 h at 37 °C. Next, 100 µL of dimethyl sulfoxide was added to each well to dissolve the purple formazan formed. The color intensity of the formazan product, which represents the growth condition of the cells, is quantified using an ELISA plate reader at 570 nm. The experimental conditions were carried out with at least three replicates and the experiments were repeated at least three times.

[2] = tested on: MCF-7 (breast cancer cell line); assay: MTT cytotoxicity assay, MCF-7; assay type: cell-based; conditions: Homo sapiens, MCF7, 24 h, 24 h treatment, mean of three experiments
Method: as §1, §2

[3] = tested on: HepG2 (hepatocellular carcinoma cell line); assay: MTT cytotoxicity assay, HepG2; assay type: cell-based; conditions: Homo sapiens, HepG2, 24 h, 24 h treatment, mean of three experiments
Method: as §1, §2

MCF-7 cells [4] = assay: Annexin V-FITC/PI apoptosis induction analysis; assay type: cell-based; conditions: MCF-7, compound at its IC50, 48 h; for percent of early apoptosis: lower right quadrant, control 0.43%; for percent of late apoptosis: upper right quadrant, control 0.23%
Method: Several imidazole molecules have been reported in the literature as apoptosis inducers in several tumor cell lines. To evaluate the mode of cell death induced by compounds 4d and 5, Annexin V/FITC and propidium iodide (PI) assays were performed. MCF-7 cells were treated with compounds 4d and 5 at their IC50 concentration dose value for 48 h.
Apoptosis in MCF-7 cells was investigated using fluorescent Annexin V-FITC/PI detection kit by flow cytometry assay. Briefly, MCF-7 cells (2 × 10^5) after incubation for 12 h. Cells were treated with compounds 4d and 5 at their IC50 concentration for 48 h, then the cells were harvested and stained with Annexin V-FITC/PI dye for 15 min in the dark at 37 °C. Flow cytometry analyses were performed using a FACS Calibur flow cytometer (Becton and Dickinson, Heidelberg, Germany).

B-Raf^V600E = biological target: T1, B-Raf^V600E (Homo sapiens, UniProt P15056, V600E); assay: In vitro B-Raf kinase assay (ELISA); assay type: biochemical; conditions: n = 3, read-out: IC50 against B-Raf^V600E (converted)
T1 construct: purchased
T1 sequence (P15056 whole entry V600E): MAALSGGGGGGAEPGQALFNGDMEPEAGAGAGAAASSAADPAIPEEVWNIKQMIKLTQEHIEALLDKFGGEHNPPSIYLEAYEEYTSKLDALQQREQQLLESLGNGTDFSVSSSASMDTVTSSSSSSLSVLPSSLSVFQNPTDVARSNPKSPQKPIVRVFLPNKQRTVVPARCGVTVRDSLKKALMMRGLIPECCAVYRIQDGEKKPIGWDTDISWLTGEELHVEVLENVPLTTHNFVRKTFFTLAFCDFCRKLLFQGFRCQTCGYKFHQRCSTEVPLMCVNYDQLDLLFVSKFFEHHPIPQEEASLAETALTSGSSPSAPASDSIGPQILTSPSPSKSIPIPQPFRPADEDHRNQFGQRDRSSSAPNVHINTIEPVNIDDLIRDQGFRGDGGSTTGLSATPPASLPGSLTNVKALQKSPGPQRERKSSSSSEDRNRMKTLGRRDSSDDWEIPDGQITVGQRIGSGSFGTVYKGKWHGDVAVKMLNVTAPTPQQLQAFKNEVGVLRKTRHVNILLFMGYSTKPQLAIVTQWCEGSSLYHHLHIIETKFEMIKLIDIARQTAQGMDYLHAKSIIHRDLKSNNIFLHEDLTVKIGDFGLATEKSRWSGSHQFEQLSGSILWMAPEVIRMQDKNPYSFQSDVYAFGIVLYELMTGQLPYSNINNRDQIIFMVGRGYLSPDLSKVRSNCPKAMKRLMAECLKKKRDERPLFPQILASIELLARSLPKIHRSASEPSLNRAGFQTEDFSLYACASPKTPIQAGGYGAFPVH
Method: Raf is a protein kinase that initiates a cascade of other protein kinases by acting on the protein kinases MEK-1 and MEK-2 [21].
(§3) Next, 100 µL of standard solution and tested molecules were pipetted into the 96-wells and B-RAF was bound to the wells by the immobilized antibody. The wells were washed and biotinylated antihuman B-Raf antibody was added. After washing away unbound biotinylated antibody, 100 µL of conjugated streptavidin solution was pipetted into the wells. After washing, 100 µL of TMB substrate solution was added to the wells for 30 min at 37 °C. Stop solution (50 µL) was added, and the intensity of the color is measured immediately at 450 nm.

human VEGFR-2 = biological target: T2, human VEGFR-2 (Homo sapiens, UniProt P35968); assay: In vitro VEGFR-2 kinase assay (ELISA); assay type: biochemical; conditions: n = 3, read-out: IC50 against VEGFR-2 kinase (converted)
T2 construct: purchased
T2 sequence (P35968 20-1356): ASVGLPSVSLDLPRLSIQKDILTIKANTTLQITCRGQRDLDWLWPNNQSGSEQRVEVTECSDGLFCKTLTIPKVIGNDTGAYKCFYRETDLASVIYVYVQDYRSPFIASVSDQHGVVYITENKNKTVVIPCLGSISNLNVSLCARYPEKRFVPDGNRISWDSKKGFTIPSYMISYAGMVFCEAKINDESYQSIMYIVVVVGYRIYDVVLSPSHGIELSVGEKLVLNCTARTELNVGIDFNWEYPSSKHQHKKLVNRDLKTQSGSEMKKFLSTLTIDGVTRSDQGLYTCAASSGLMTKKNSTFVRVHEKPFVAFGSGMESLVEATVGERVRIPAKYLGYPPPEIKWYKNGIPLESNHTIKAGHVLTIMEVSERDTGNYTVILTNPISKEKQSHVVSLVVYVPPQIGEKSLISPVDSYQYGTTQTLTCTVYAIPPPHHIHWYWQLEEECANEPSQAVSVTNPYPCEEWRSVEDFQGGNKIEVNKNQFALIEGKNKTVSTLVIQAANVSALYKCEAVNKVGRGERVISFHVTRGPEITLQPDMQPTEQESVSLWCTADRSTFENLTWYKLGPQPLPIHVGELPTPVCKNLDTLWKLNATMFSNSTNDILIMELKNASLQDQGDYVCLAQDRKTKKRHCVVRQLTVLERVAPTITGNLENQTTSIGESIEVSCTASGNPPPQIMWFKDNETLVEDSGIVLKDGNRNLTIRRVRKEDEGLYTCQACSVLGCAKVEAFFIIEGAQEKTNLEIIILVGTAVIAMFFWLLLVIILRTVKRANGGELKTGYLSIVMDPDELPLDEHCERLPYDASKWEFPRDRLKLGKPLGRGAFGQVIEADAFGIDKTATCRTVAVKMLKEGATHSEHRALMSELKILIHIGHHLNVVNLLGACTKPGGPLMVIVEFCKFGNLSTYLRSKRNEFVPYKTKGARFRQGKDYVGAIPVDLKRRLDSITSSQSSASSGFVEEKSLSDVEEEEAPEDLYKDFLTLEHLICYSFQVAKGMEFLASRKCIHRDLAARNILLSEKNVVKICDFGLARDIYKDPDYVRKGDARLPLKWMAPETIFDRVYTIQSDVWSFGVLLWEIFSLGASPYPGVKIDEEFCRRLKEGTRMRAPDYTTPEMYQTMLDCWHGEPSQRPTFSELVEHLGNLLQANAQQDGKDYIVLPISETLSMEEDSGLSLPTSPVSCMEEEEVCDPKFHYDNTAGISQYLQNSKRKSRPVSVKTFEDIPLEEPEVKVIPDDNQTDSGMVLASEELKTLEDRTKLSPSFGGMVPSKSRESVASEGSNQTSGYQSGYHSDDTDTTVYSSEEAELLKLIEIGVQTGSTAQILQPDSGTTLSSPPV
Method: To investigate the possible molecular mechanism underlying the potent anticancer activity of compounds 4d and 5. Their inhibitory activity against VEGFR-2 kinase was determined using an ELISA assay.
as §3, with “A total of” for “Next,”, “VEGFR-2” for “B-RAF”, “VEGFR-2” for “B-Raf”, “was” for “is”

MCF-7 cells [5] = assay: Cell cycle analysis by DNA flow cytometry; assay type: cell-based; conditions: MCF-7, compound at its IC50, 48 h; for percentage of cells at pre-G1 phase: control 1.61%; for percentage of cell population at the G2/M phase: control 8.79%
Method: Therefore, it can be concluded that compounds 4d and 5 inhibit the cell proliferation of MCF-7 cells via cell cycle arrest at the G2/M phase and induction of apoptosis (Figure 2).
MCF-7 cells (2 × 10^5/well) were harvested and washed twice in PBS. After that, cells were incubated at 37 °C and 5% CO2. The medium was replaced with DMSO (1% v/v) containing the tested compounds, then incubated for 48 h, washed twice in PBS, fixed with 70% ethanol, rinsed again with PBS, and then stained with DNA fluorochrome PI for 15 min at 37 °C. DNA content was analyzed by flow cytometry on a FACS Calibur flow cytometer (Becton and Dickinson, Heidelberg, Germany).

[6] = tested on: normal breast cell line (MCF-10A); assay: MTT cytotoxicity assay, normal breast cell line MCF-10A; assay type: cell-based; conditions: for IC50: Homo sapiens, MCF-10A, 24 h treatment
Method: as §1, §2

MCF-7 cell line = tested on: MCF-7 cell line; set-up: method as in PMID 32757353; conditions: read-out: IC50 against MCF-7 cell line; cited from earlier work

Row | SMILES | IC50 ([1]; Homo sapiens, HCT-116, 24 h) [µM] | IC50 [2] [µM] | IC50 [3] [µM] | melting point [°C] | IC50 [6] [µM] | further results
1 | Oc1ccccc1/C=N/n1c(-c2ccc(Cl)cc2)c[nH]c1=S [Compound 4b, (E)-5-(4-Chlorophenyl)-1-(2-hydroxybenzylideneamino)-1H-imidazole-2(3H)-thione] | 23.5 ± 1.6 | 24.9 ± 1.6 | > 50 | 128 to 130 | – | –
2 | COc1ccc(-c2c[nH]c(=S)n2/N=C/c2ccccc2O)cc1 [Compound 5, (E)-1-(2-Hydroxybenzylideneamino)-5-(4-methoxyphenyl)-1H-imidazole-2(3H)-thione] | < 5 | – | – | – | 27.8 ± 0.31 | IC50 [1]: 3.99 ± 0.3 µM; percent of early apoptosis (MCF-7 cells [4]): 2.66%; percent of late apoptosis (MCF-7 cells [4]): 13.64%; IC50 (B-Raf^V600E): 7.31 µM; IC50 (human VEGFR-2): 252 nM; percentage of cells at pre-G1 phase (MCF-7 cells [5]): 22.81%; percentage of cell population at the G2/M phase (MCF-7 cells [5]): 25.63%; cytotoxic effect towards MCF-10A (in words) [6]: weak cytotoxic effect
3 | S=c1[nH]cc(-c2ccc(Cl)cc2)n1/N=C/c1ccccc1 [Compound 4a, (E)-1-(Benzylideneamino)-5-(4-chlorophenyl)-1H-imidazole-2(3H)-thione] | 20.6 ± 1.4 | > 50 | 61.8 ± 4.1 | 121 to 123 | – | –
4 | CC(=O)O[C@@]12CO[C@@H]1C[C@H](O)[C@@]1(C)C(=O)[C@H](O)C3=C(C)[C@@H](OC(=O)[C@H](O)[C@@H](NC(=O)OC(C)(C)C)c4ccccc4)C[C@@](O)([C@@H](OC(=O)c4ccccc4)[C@H]21)C3(C)C [DOC, Docetaxel, reference compound] | 14 ± 0.9 | 11.1 ± 0.7 | 8.13 ± 0.5 | – | 33.17 ± 0.19 | –
5 | S=c1[nH]cc(-c2ccc(Cl)cc2)n1/N=C/C=C/c1ccccc1 [Compound 4e, 5-(4-Chlorophenyl)-1-((E)-((E)-3-phenylallylidene)amino)-1H-imidazole-2(3H)-thione] | 3.99 ± 0.3 | 13.2 ± 0.9 | 17 ± 1.1 | 139 to 141 | – | –
6 | CCOC(=O)/C(C#N)=C(\c1ccc(O)cc1)n1cc(O)n(/N=C/C=C/c2ccccc2)c1=S [compound III] | – | – | – | – | – | IC50 (MCF-7 cell line): 3260 nM
7 | COc1ccc(/C=N/n2c(-c3ccc(Cl)cc3)c[nH]c2=S)cc1 [Compound 4d, (E)-5-(4-Chlorophenyl)-1-(4-methoxybenzylideneamino)-1H-imidazole-2(3H)-thione] | 28.9 ± 1.9 | 7.97 ± 0.5 | 4.09 ± 0.3 | – | 44.06 ± 0.23 | percent of early apoptosis (MCF-7 cells [4]): 6.12%; percent of late apoptosis (MCF-7 cells [4]): 10.23%; IC50 (B-Raf^V600E): 38 µM; IC50 (human VEGFR-2): 721 nM; percentage of cells at pre-G1 phase (MCF-7 cells [5]): 22.36%; percentage of cell population at the G2/M phase (MCF-7 cells [5]): 35.55%; cytotoxic effect towards MCF-10A (in words) [6]: weak cytotoxic effect
8 | CNC(=O)c1cc(Oc2ccc(NC(=O)Nc3ccc(Cl)c(C(F)(F)F)c3)cc2)ccn1 [SOR] | – | – | – | – | – | IC50 (MCF-7 cell line): 1120 nM
9 | CC(=O)Oc1ccccc1/C=N/n1c(-c2ccc(Cl)cc2)cn(C(C)=O)c1=S [Compound 6, (E)-2-((3-Acetyl-5-(4-chlorophenyl)-2-thioxo-2,3-dihydro-1H-imidazol-1-ylimino)methyl)phenyl Acetate] | – | – | – | 115 to 117 | – | –
10 | Oc1ccc(Br)cc1/C=N/n1c(-c2ccc(Cl)cc2)c[nH]c1=S [Compound 4c, (E)-1-(5-Bromo-2-hydroxybenzylideneamino)-5-(4-chlorophenyl)-1H-imidazole-2(3H)-thione] | 9.96 ± 0.7 | 44 ± 2.9 | 11.4 ± 0.8 | 191 to 193 | – | –
